Assay results from patent US12329769B2, “Use of Abelmoschi corolla extract in preparation of drug for treating fibrosis” (SUZHONG PHARMACEUTICAL GROUP CO., LTD., priority 2019, dated 2025).

Legend:
[1] = system: fibrosis of NRK-49F cells stimulated by TGF-β1; test: In-vitro anti-fibrosis effect: WB of Collagen I and α-SMA in NRK-49F cells stimulated by TGF-β1; assay type: cell-based; settings: 30 μM monomer constituent, added 30 minutes before TGF-β1, co-incubation 24 hours, FIG. 3
Protocol: NRK-49F cells were inoculated into a 6-well plate at a density of 5×10^5 cells/well, and cultured in a DMEM medium containing 10% fetal bovine serum for 16 hours. After adding 50 μg/mL Abelmoschi corolla extract and each elution fraction constituent of macroporous resin and 30 μM monomer constituent of Abelmoschus manihot for 30 minutes, 10 mg/mL TGF-β1 was added. After co-incubation for 24 hours, cell proteins were extracted for a WB experiment to detect expression of Collagen I and α-SMA proteins, so as to judge the in-vitro anti-fibrosis effects of the Abelmoschi corolla extract and each elution constituent of macroporous resin and the monomer constituent.

NRK-49F cells = test: MTT test of effect on activity of NRK-49F cells; assay type: cell-based; settings: 30 μM monomer constituent, co-incubation 24 hours
Protocol: NRK-49F cells were inoculated into a 96-well plate at a density of 5×10^3 cells/well, and cultured in a DMEM medium containing 10% fetal bovine serum for 16 hours. 50 μg/mL gradient elution constituent solution of macroporous resin of an Abelmoschi corolla extract or 30 μM of monomer constituents of the Abelmoschi corolla extract were added. After co-incubation for 24 hours, an original culture solution was removed, and 100 μL of 0.5 mg/mL MTT was added into each well. After incubation in an incubator for 4 hours, a staining solution was removed, and 150 μL of DMSO was added for detection by a microplate reader.

Row | Structure (SMILES) | expression of Collagen I protein (WB) [1] | expression of α-SMA protein (WB) [1] | activity of the NRK-49F cells (MTT) (NRK-49F cells)
1 | O=c1c(O)c(-c2ccc(O)c(O)c2)oc2cc(O)cc(O)c12 [compound 20, Quercetin] | significantly inhibit | significantly inhibit | –
2 | O=c1c(O)c(-c2cc(O)c(O)c(O)c2)oc2cc(O)cc(O)c12 [compound 18, Myricetin] | – | – | significantly inhibit
3 | O=C(O)C1OC(Oc2c(O)cc(O)c3c(=O)c(OC4OC(CO)C(O)C(O)C4O)c(-c4ccc(O)c(O)c4)oc23)C(O)C(O)C1O [compound 6, Gossypetin-3-O-β-D-glucose-8-O-β-D-glucuronide] | significantly inhibit | significantly inhibit | –
